Experimental data published in the supplement of paper PMC4862054.

Tests used:
Settings in all cases: incubation time: 72 h
[1] = tested on: HCC1143; experiment: normalised response (% of control), CellTiter-Glo; higher = more viable cells (100 = DMSO, 0 = benzethonium chloride kill control)
Summary of the method: (§1)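 Each entry is the normalised signal at a single concentration within a series. The series comprised 5 concentrations in 10-fold steps over a compound-specific 10,000-fold range, placed in 384-well plates into which breast cancer cell lines were seeded as 20 µl suspension and incubated 72 h. CellTox Green (485/520 nm) fluorescence and then CellTiter-Glo luminescence were read, with signals normalised per plate to 0.1 % DMSO (100) and a positive kill control (0).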

[2] = tested on: HCC1599; experiment: as above
Summary of the method: as §1

[3] = tested on: CAL-85-1; experiment: as above
Summary of the method: as §1

[4] = tested on: MDA-MB-453; experiment: as above
Summary of the method: as §1

[5] = tested on: SK-BR-3; experiment: as above
Summary of the method: as §1

[6] = tested on: BT-549; experiment: as above
Summary of the method: as §1

[7] = tested on: CAL-120; experiment: as above
Summary of the method: as §1

[8] = tested on: MDA-MB-436; experiment: as above
Summary of the method: as §1

[9] = tested on: BT-474; experiment: as above
Summary of the method: as §1

[10] = tested on: Hs578T; experiment: as above
Summary of the method: as §1

[11] = tested on: MDA-MB-468; experiment: as above
Summary of the method: as §1

[12] = tested on: MFM-223; experiment: as above
Summary of the method: as §1

[13] = tested on: CAL-51; experiment: as above
Summary of the method: as §1

[14] = tested on: MCF-10A; experiment: as above
Summary of the method: as §1

[15] = tested on: HCC1937; experiment: as above
Summary of the method: as §1

[16] = tested on: HDQ-P1; experiment: as above
Summary of the method: as §1

[17] = tested on: CAL-148; experiment: as above
Summary of the method: as §1

[18] = tested on: DU-4475; experiment: as above
Summary of the method: as §1

[19] = tested on: MDA-MB-231; experiment: as above
Summary of the method: as §1

[20] = tested on: HCC1143; experiment: normalised response (% of control), CellTox Green; higher = less cell death (100 = DMSO, 0 = benzethonium chloride kill control)
Summary of the method: as §1

[21] = tested on: HCC1599; experiment: as above
Summary of the method: as §1

[22] = tested on: CAL-85-1; experiment: as above
Summary of the method: as §1

[23] = tested on: MDA-MB-453; experiment: as above
Summary of the method: as §1

[24] = tested on: BT-549; experiment: as above
Summary of the method: as §1

[25] = tested on: CAL-120; experiment: as above
Summary of the method: as §1

[26] = tested on: MDA-MB-436; experiment: as above
Summary of the method: as §1

[27] = tested on: BT-474; experiment: as above
Summary of the method: as §1

[28] = tested on: Hs578T; experiment: as above
Summary of the method: as §1

[29] = tested on: MDA-MB-468; experiment: as above
Summary of the method: as §1

[30] = tested on: MFM-223; experiment: as above
Summary of the method: as §1

[31] = tested on: CAL-51; experiment: as above
Summary of the method: as §1

[32] = tested on: MCF-10A; experiment: as above
Summary of the method: as §1

[33] = tested on: HCC1937; experiment: as above
Summary of the method: as §1

[34] = tested on: HDQ-P1; experiment: as above
Summary of the method: as §1

[35] = tested on: CAL-148; experiment: as above
Summary of the method: as §1

[36] = tested on: DU-4475; experiment: as above
Summary of the method: as §1

[37] = tested on: MDA-MB-231; experiment: as above
Summary of the method: as §1

N[C@@H](Cc1ccc(N(CCCl)CCCl)cc1)C(=O)O [Melphalan] (1250 nM)
normalised response [1]: 34.5% | normalised response [2]: 2.61% | normalised response [3]: 0.23% | normalised response [4]: 0.2% | normalised response [5]: -0.01% | normalised response [6]: 22.1% | normalised response [7]: 50% | normalised response [8]: 9.28% | normalised response [9]: 1.75% | normalised response [10]: 16.4% | normalised response [11]: 0.81% | normalised response [12]: 0.49% | normalised response [13]: 0.26% | normalised response [14]: 0.24% | normalised response [15]: 4.2% | normalised response [16]: 1.18% | normalised response [17]: 7.68% | normalised response [18]: 0% | normalised response [19]: 0.06% | normalised response [20]: 95.9% | normalised response [21]: 45.5% | normalised response [22]: -12% | normalised response [23]: 25.6% | normalised response [24]: 28.1% | normalised response [25]: 72.2% | normalised response [26]: 84% | normalised response [27]: -13.4% | normalised response [28]: 35.8% | normalised response [29]: -18.1% | normalised response [30]: 10.1% | normalised response [31]: -30.1% | normalised response [32]: -50.4% | normalised response [33]: 18.1% | normalised response [34]: -17.2% | normalised response [35]: 4.59% | normalised response [36]: 51.8% | normalised response [37]: -55.7%
